Here are results for eleven compounds from patent US7786141B2 (Vertex Pharmaceuticals Incorporated, priority 2004, dated 2010).

One experiment has as its target T1, M1 muscarinic receptor (Homo sapiens, UniProt P11229).
T1 construct: expressed in transfected cells; host or cells: CHO (M1-CHO)
T1 sequence (P11229 1-460): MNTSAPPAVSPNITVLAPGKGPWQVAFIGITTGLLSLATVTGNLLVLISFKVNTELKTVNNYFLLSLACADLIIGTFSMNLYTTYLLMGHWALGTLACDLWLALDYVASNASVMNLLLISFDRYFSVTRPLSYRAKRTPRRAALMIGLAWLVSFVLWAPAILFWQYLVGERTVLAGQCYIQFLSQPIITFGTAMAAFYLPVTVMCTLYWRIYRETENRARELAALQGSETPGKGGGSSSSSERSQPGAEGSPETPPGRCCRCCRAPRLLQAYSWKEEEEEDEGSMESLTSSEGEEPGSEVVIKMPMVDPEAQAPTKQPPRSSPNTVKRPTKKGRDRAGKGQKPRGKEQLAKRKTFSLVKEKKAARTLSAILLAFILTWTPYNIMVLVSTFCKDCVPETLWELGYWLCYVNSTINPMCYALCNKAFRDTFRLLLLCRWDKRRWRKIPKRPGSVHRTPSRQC
The experiment can be described thus: Functional mobilization of intracellular calcium (FLIPR) in M1-CHO cells. The settings on record: Table 4; for Emax: 100% efficacy is the maximum response obtained with the Carbachol control; for M1 Activity: M1 receptor, calcium mobilization (FLIPR). The format is cell-based. The method in brief:
(§1)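 Measured via Fluo-3 fluorescence on a FLIPR, CHO cells with either muscarinic subtype received compound in 0.5% DMSO. Antagonism was assessed after 15 min pre-incubation followed by carbachol at each subtype's EC80; agonism from compound addition alone.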
In general terms: Calcium flux is commonly read through the fluorescence of an indicator in the cells.

A further experiment concerns the target T2, M4 muscarinic receptor (Homo sapiens, UniProt P08173).
T2 construct: expressed in transfected cells; host or cells: CHO (M4-CHO)
T2 sequence (P08173 1-479): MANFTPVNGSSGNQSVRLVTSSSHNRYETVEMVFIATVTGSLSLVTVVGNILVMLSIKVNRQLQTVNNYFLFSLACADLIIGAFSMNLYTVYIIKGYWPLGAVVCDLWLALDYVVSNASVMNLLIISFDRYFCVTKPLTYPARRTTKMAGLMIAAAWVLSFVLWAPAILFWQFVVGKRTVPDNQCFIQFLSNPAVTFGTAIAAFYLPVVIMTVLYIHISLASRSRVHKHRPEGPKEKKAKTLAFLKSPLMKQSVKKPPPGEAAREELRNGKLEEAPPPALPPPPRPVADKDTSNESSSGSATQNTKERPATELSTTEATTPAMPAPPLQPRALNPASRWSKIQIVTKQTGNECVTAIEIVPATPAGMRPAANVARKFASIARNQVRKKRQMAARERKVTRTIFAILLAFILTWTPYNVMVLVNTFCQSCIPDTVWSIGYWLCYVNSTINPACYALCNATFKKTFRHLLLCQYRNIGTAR
The experiment can be described thus: Functional mobilization of intracellular calcium (FLIPR) in M4-CHO cells. The class given is cell-based. Conditions: Table 4; for Emax: 100% efficacy is the maximum response obtained with the Carbachol control; for M4 Activity: M4 receptor, calcium mobilization (FLIPR). The method in brief:
as §1

Bounds are passed on as bounds.

One may read the Emax as the maximal effect, on the per cent scale that the assay sets. As to `CCCC#CCOC(=O)N1C2CCC1CC(N1CCC3(CC1)CN(C(C)=O)c1ccccc13)C2` (centres unmarked) [compound 820], on M1 muscarinic receptor, the Emax is 25 to 100% and the “M1 Activity” value was “xxx (activity was measured to be less than 2.0 μM)”. For the same compound, on M4 muscarinic receptor, the Emax lay in the range of 25 to 100% and the “M4 Activity” value was “xxx (activity was measured to be less than 2.0 μM)”.

In the case of `CC(=O)N[C@H]1CC2(CCN([C@@H]3CC4CCC3C4)C2)c2ccc(F)cc21` (some centres unmarked) [compound 821], on M1 muscarinic receptor, the Emax is 25 to 100% and the “M1 Activity” value was “x (activity was measured to be greater than 5.0 μM)”. For the same compound, on M4 muscarinic receptor, the Emax is less than 25% and the “M4 Activity” value is “x (activity was measured to be greater than 5.0 μM)”.

For `CCc1cncc(N2CCC(N3CCC4(CC3)CN(C(C)=O)c3ccccc34)CC2)n1` [compound 822], on M1 muscarinic receptor, the Emax lay in the range of 25 to 100% and the “M1 Activity” value is given as “xxx (activity was measured to be less than 2.0 μM)”. In addition, on M4 muscarinic receptor, the Emax was 25 to 100% and the “M4 Activity” value is listed as “xxx (activity was measured to be less than 2.0 μM)”.

Consider `CC(=O)N[C@H]1CC2(CCN(C3CCCCCC3)C2)c2ccc(F)cc21` (some centres unmarked) [compound 823], for which, at M1 muscarinic receptor, the Emax was in the range of 25 to 100%; the “M1 Activity” value was “xx (activity was measured to be between 2.0 μM and 5.0 μM)”. In addition, on M4 muscarinic receptor, the Emax lay in the range of 25 to 100%; the “M4 Activity” value is “xx (activity was measured to be between 2.0 μM and 5.0 μM)”.

On to `CC(=O)N1CC2(CCN(C3CCN(C(=O)O[C@H]4CCOC4)CC3)CC2)c2ccccc21` [compound 824], for which, at M1 muscarinic receptor, the maximum response (Emax) was 25 to 100% and the “M1 Activity” value is reported as “x (activity was measured to be greater than 5.0 μM)”. At M4 muscarinic receptor, the Emax is less than 25% and the “M4 Activity” value was “x (activity was measured to be greater than 5.0 μM)”.

Take `CCC#CCOC(=O)N1CCC(N2CCC3(CC2)CN(C(C)=O)c2cccc(C)c23)CC1` [compound 825]: on M1 muscarinic receptor, the Emax lay in the range of 25 to 100% and the “M1 Activity” value is recorded as “xxx (activity was measured to be less than 2.0 μM)”. For the same compound, at M4 muscarinic receptor, the Emax was less than 25% and the “M4 Activity” value is recorded as “x (activity was measured to be greater than 5.0 μM)”.

`O=C1CC2(CCN(CC3CC4C=CC3C4)CC2)c2cc(Cl)ccc21` (centres unmarked) [compound 826]: on M1 muscarinic receptor, the maximum response (Emax) was 25 to 100% and the “M1 Activity” value is given as “xxx (activity was measured to be less than 2.0 μM)”. On M4 muscarinic receptor, the Emax was 25 to 100% and the “M4 Activity” value was “xxx (activity was measured to be less than 2.0 μM)”.

Take `CCOC(=O)N1C2CCC1CC(N1CCC3(CC1)CN(C(C)=O)c1c(C)cc(C)cc13)C2` (centres unmarked) [compound 827]: on M1 muscarinic receptor, the Emax lay within 25 to 100% and the “M1 Activity” value was “xxx (activity was measured to be less than 2.0 μM)”. Also, at M4 muscarinic receptor, the Emax fell in the range of 25 to 100% and the “M4 Activity” value is listed as “xxx (activity was measured to be less than 2.0 μM)”.

Regarding `CC(=O)NC1CCC2(CCN(CCC3CCCN(C(=O)C(C)(C)C)C3)CC2)c2ccccc21` (centres unmarked) [compound 828], at M1 muscarinic receptor, the maximal response (Emax) was 25 to 100% and the “M1 Activity” value is recorded as “xxx (activity was measured to be less than 2.0 μM)”. Further, at M4 muscarinic receptor, the Emax is less than 25% and the “M4 Activity” value is given as “x (activity was measured to be greater than 5.0 μM)”.

For `CC(=O)N1CC2(CCN(C3CCN(C(=O)OCC(F)F)CC3)CC2)c2cc(C)ccc21` [compound 829], on M1 muscarinic receptor, the Emax was in the range of 25 to 100% and the “M1 Activity” value was “xxx (activity was measured to be less than 2.0 μM)”. In addition, at M4 muscarinic receptor, the maximal response (Emax) fell in the range of 25 to 100% and the “M4 Activity” value is reported as “xxx (activity was measured to be less than 2.0 μM)”.

Regarding `CC(=O)N[C@H]1CC2(CCN(C3CCCC3C)CC2)c2ccccc21` (some centres unmarked) [compound 830], on M1 muscarinic receptor, the Emax lay within 25 to 100% and the “M1 Activity” value is given as “x (activity was measured to be greater than 5.0 μM)”. Moreover, at M4 muscarinic receptor, the Emax fell in the range of 25 to 100%; the “M4 Activity” value is “xx (activity was measured to be between 2.0 μM and 5.0 μM)”.
